Laboratory results: patent US10111847B2, “Compounds and methods for modulating vascular injury” (The Regents of the University of California, priority 2012, dated 2018)

Tests used:
p65 subunit = experiment: Nuclear translocation of p65 subunit in sv-ECs (immunofluorescence); format: cell-based, human; details: 100 nm, 30 min; TNFα 1 ng/ml 2 hrs
Description: Immunofluorescence for p65 (RelA): 15000 VSMCs or 30000 ECs were seeded on a 8-well chamber slide. Cells received 30 min of Maresin-1 pretreatment, followed by TNF-α for 2 hr. Cells were fixed in 2% paraformaldehyde, followed by permeabilization with ice-cold acetone (10 min) and 1% Triton X-100 (20 min). Cells were incubated overnight in a humidified chamber with anti-p65 antibody (Santa Cruz Biotechnology Inc.) followed by Alexa-fluor 488 tagged secondary antibody (Life Technologies) and were visualized under a fluorescent microscope.
ECs were grown in chamber slides and treated with vehicle or 100 nm of 7S-Maresin-1 for 30 min, followed by TNFα (1 ng/ml) for 2 hrs. Cells were fixed and subsequently stained with anti-p65 (Santa Cruz Biotechnology) and secondary antibodies (Alexa-488).
FIGS. 17A-17D. Representative images of Ctrl (A), TNFα (B), 7S-Maresin-1+TNFα. (C). (D) Mean fluorescence of nucleus and cytoplasm were quantified from all groups and the net result of the ratio of nucleus over cytoplasmic mean fluorescence is depicted in the bar graph, as a measure of relative p65 nuclear translocation. (N>=3). P≤0.05, One-way ANOVA with Dunnett's post hoc test. *: P≤0.05 compared to control, unpaired t-test. †: P≤0.05 compared to TNFα, unpaired t-test. Error bars: SEM.

human sv-VSMCs = experiment: PDGF-BB induced VSMC cell-shape measurement (phalloidin); format: cell-based; details: 100 nM, 30 min; PDGF-BB 50 ng/ml 1 hr
Description: Cells were cultured in 8-well chamber slides (3,000 cells/well) and pretreated with MaR-1 or vehicle (0.1% ethanol) for 30 min followed by the addition of PDGF-BB (50 ng/ml) for 1 h. Cells were washed twice in phosphate-buffered saline (PBS), permeabilized with 0.1% Triton-X, and then fixed in 4% formaldehyde, labeled with Alexa Fluor 568 phalloidin (Invitrogen) and DAPI, and then mounted on glass slides. Cell area and length/width ratio were determined by outlining the cell dimensions and computing 2-dimensional area using GIMP image analysis software (GIMP, freeware; www.gimp.org). For each condition, dimensions were measured from 30 randomly selected cells, and all treatment conditions were performed in triplicate.
Human sv-VSMCs cultured in chamber slides were treated with 7S-Maresin-1 at 100 nM or vehicle for 30 min, followed by PDGF-BB, 50 ng/ml for 1 hr. Cells were then fixed, permeabilized and stained with phalloidin (Life technologies).
FIGS. 21A-21E. (A) Vehicle Control. (B) PDGF-BB, 50 ng/ml. (C) 7S-Maresin-1, 100 nm+PDGF-BB, 50 ng/ml. (D) 7S-Maresin-1, 100 nm+pertussis toxin, 10 ng/ml+PDGF-BB, 50 ng/ml. (E) Graphical summary of N=4 per group. P≤0.01, One-way ANOVA with Dunnett's post hoc test. *P<0.05 compared to PDGF-BB (50 ng/ml). †: P≤0.05 compared to PDGF-BB alone, unpaired t-test. ‡: P≤0.05 compared to PDGF-BB+7S-Maresin-1, unpaired t-test. Error bars: SEM.

VCAM-1 = VCAM-1 expression in TNFα treated VSMC, western blot; format: cell-based, human; details: 10 and 100 nM; TNFα 10 ng/ml 4 hr; P=0.20 compared to TNFα
Description: (§1) Mar-1. VSMCs and ECs were lysed in buffer (20 mM Tris-Hcl, 137 mM NaCl, 10% Glycerol, 1% NP-40) with protease and phosphatase inhibitors (Halt inhibitor capsules, Pierce, Inc) by sonication on ice. The lysates were instantly snap frozen in liquid nitrogen and thawed back later for western blotting. After centrifugation (15,000 g for 20 minutes), the whole cell extract (supernatant) was collected and was heated at 100° C. in Laemlli buffer for 6 minutes. Lysates were run on Mini-Protean TGX gels
(§2) (Biorad) and transferred on PVDF membranes which were probed with appropriate primary and secondary antibodies and visualized for quantitation using q-dot nanocrystals (Life Technologies, Inc).
FIGS. 15A-15D. Representative images of Calcein-AM labeled U937 monocytes adhered to human sv-VSMCs pretreated with vehicle (A, B) or 7S-Maresin-1 (C) or 7S-Maresin-1 and pertussis toxin (D) for 30 min, followed by TNFα at 10 ng/ml for 4 hr (B, C, D). (E) Quantitative analysis of U937 adhesion assay in human sv-VSMCs and (F) human sv-ECs (1 ng/ml TNFα used for EC cells). […] Bar graph represents net quantitative densitometry analysis. […] Expression of MCP-1 was measured by qRT-PCR, and normalized to unstimulated cells (n=3, results are mean±SEM, P<0.05 for Mar-1 (10 and 100 nM) vs TNF alone, unpaired t-test).

IKKα/β subunit = experiment: TNFα induced phosphorylation of IKKα/β in sv-VSMCs, western blot; format: cell-based, human; details: 100 nm, 30 min; TNFα 10 ng/ml 15 min
Description: as §1, §2
Cells were pretreated with 100 nm of 7S/7R-Maresin-1 for 30 min, followed by TNFα (10 ng/ml for VSMC and 1 ng/ml for EC) for 15 min. Whole cell lysates were collected and probed for pan and phospho IKK (Cell Signaling Inc.).
FIG. 18. IKK-phospho and total IKK western blotting image is representative of three independent experiments. Bar graph represents net quantitative densitometry analysis. N=3. P≤0.05, One-way ANOVA with Dunnett's post hoc test. *: P≤0.05 compared to control, unpaired t-test. †: P≤0.05 compared to TNFα, unpaired t-test. Error bars: SEM.

CC/C=C\C/C=C\C[C@H](O)\C=C/C=C/C=C/[C@@H](O)C/C=C\CCC(=O)O [7S-Maresin-1, 7S,14R-dihydroxydocosa-4Z,8E,10Z,12Z,16Z,19Z-hexaenoic acid]
nuclear translocation of p65 subunit in human sv-ECs (p65 subunit): Inhibits
PDGF-BB induced vascular smooth muscle cell shape change (human sv-VSMCs): Alters
VCAM-1 expression by Western blot (VCAM-1): inhibition of VCAM-1 expression
TNFα induced phosphorylation of IKKα/β subunit in human sv-VSMCs (IKKα/β subunit): Reduce
